In patent US20040157821A1, “Sulfate of cephem compound” (priority 2001, published 2004):
Where a name gives a salt, the structure may show the parent alone.

Assays:
[1] = acceleration stability test at 40° C. of crystals filled into vials (residue rate, appearance); format: physicochemical; details: for appearance (of powder) / residue rate (%): 40° C., vial
Description: (§1) The crystals obtained in the above examples were filled into vials and the residue rate thereof was examined through the acceleration stability test at 40° C. Further, the turbidity of an aqueous solution containing the crystal was determined.
(§2) The monosulfate crystal of compound (I) obtained in Example 9 was filled into vials and the residue rate thereof was examined through the acceleration stability test at 40° C. Further, the turbidity was determined.
As a reference compound, used was a lyophilization product of monohydrochloride of compound (I) (non-crystal, KF value: 1.7%, 0.6 H2O) obtained according to the method of Example 6-2 of WO 00/32606.
(§3) The crystals obtained in Example 10 were filled into vials and the residue rate thereof was examined through the acceleration stability test at 40° C. Further, the turbidity of solutions was determined.

[2] = turbidity / appearance of an aqueous solution containing the crystal; format: physicochemical; details: for turbidity Abs(600 nm): aqueous solution, absorbance 600 nm
Description: as §1, §2, §3

Structure (SMILES) | appearance (of powder) ([1]; 1 month) | residue rate (%) ([1]; 1 month) | appearance (of powder) ([1]; initial) | residue rate (%) ([1]; initial) | turbidity Abs(600 nm) ([2]; after 1 month at 40° C.) | turbidity Abs(600 nm) ([2]; initial) | appearance (of powder) ([1]; 2 month) | residue rate (%) ([1]; 2 month) | appearance of solution ([2]; after 1 month at 40° C.) | appearance of solution ([2]; after 2 month at 40° C.) | turbidity Abs(600 nm) ([2]; after 2 month at 40° C.) | appearance of solution ([2]; initial) | stability (in words) ([1]; acceleration stability test at 40° C.) | turbidity upon being dissolved into water (in words) ([2]; after storage at 40° C.)
CCO/N=C(\C(=O)N[C@@H]1C(=O)N2C(C(=O)[O-])=C(C[n+]3cccc4c3NCN4CCCNC)CS[C@H]12)c1nsc(N)n1 [Example 6(2)] | white | 99.0% | white | 100.0% | 0.007 | 0.006 | – | – | – | – | – | – | – | –
CCO/N=C(\C(=O)N[C@@H]1C(=O)N2C(C(=O)[O-])=C(C[n+]3cccc4c3ncn4CCCNC)CS[C@H]12)c1nsc(N)n1 [hydrochloride, reference compound] | pale | 94.8% | pale | 100.0% | 0.565 | 0.001 | pale | 92.9% | Yellow | Yellow | 1.338 | pale | – | –
CCO/N=C(\C(=O)N[C@@H]1C(=O)N2C(C(=O)[O-])=C(C[n+]3cccc4c3NCN4CCCNC)CS[C@H]12)c1nsc(N)n1 [Example 6(1)] | white | 99.6% | white | 100.0% | 0.011 | 0.000 | – | – | – | – | – | – | – | –
CCO/N=C(\C(=O)N[C@@H]1C(=O)N2C(C(=O)[O-])=C(C[n+]3cccc4c3NCN4CCCNC)CS[C@H]12)c1nsc(N)n1 [Example 10] | – | 98.5% | white powder | 100.0% | 0.002 | 0.002 | – | – | – | – | – | – | high stability for a long period | turbidity was hardly observed
